Measurements from the supplement of paper PMC10307832.

Columns and labels:
Assay in all cases: relative viability (nuclei count vs DMSO), 5 days (fraction); higher = more cells survive
[1] = compound: C[C@]12O[C@H](C[C@]1(O)CO)n1c3ccccc3c3c4c(c5c6ccccc6n2c5c31)CNC4=O [Lestaurtinib] + CC1(C)CCC(c2ccc(Cl)cc2)=C(CN2CCN(c3ccc(C(=O)NS(=O)(=O)c4ccc(N[C@H](CCN5CCOCC5)CSc5ccccc5)c(S(=O)(=O)C(F)(F)F)c4)cc3)CC2)C1 [Navitoclax] (partner 0.5 µM)
In short: (§1)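 Lung cancer cell lines in 1536-well plates were dosed by pin tool the day after seeding, either with one drug alone or with a fixed anchor-drug dose plus five library-drug doses (not always all listed) in √10 steps. After 5 days, cells were fixed and their nuclei stained in one step (final 0.05% Triton X-100, 1% formaldehyde, 1 ug/ml Hoechst), then counted on 4× images. Relative viability is the nuclei count in treated wells divided by that in vehicle wells. Values are medians of duplicate plates.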

[2] = compound: C1/C(=C\C2=CC=CS2)/C(=O)/C(=C/C3=CC=CS3)/C1 + C[C@]1(O)C[C@@H](c2nc(-c3ccc4ccc(-c5ccccc5)nc4c3)c3c(N)nccn32)C1 [Linsitinib] (partner 1 µM)
In short: as §1

[3] = compound: C1=CC(=CC=C1C2=CC(=C(S2)NC(=O)N)C(=O)N)F [TPCA-1] + O=C(c1cc(Cc2n[nH]c(=O)c3ccccc23)ccc1F)N1CCN(C(=O)C2CC2)CC1 [Olaparib] (partner 8 µM)
In short: as §1

[4] = compound: C[C@]12O[C@H](C[C@]1(O)CO)n1c3ccccc3c3c4c(c5c6ccccc6n2c5c31)CNC4=O [Lestaurtinib] + C[C@]1(O)C[C@@H](c2nc(-c3ccc4ccc(-c5ccccc5)nc4c3)c3c(N)nccn32)C1 [Linsitinib] (partner 1 µM)
In short: as §1

## UMC-11
[1]; first compound 0.005 µM
  relative viability: 0.294
[1]; first compound 0.01581 µM
  relative viability: 0.275
[1]; first compound 0.05 µM
  relative viability: 0.251
[1]; first compound 0.1581 µM
  relative viability: 0.144
[1]; first compound 0.5 µM
  relative viability: 0.143
[2]; first compound 0.2 µM
  relative viability: 1.02
[2]; first compound 0.6325 µM
  relative viability: 1.07
[2]; first compound 2 µM
  relative viability: 1.03
[2]; first compound 20 µM
  relative viability: 1
[3]; first compound 0.04 µM
  relative viability: 0.365
[3]; first compound 0.1265 µM
  relative viability: 0.455
[3]; first compound 0.4 µM
  relative viability: 0.405
[3]; first compound 1.265 µM
  relative viability: 0.381
[3]; first compound 4 µM
  relative viability: 0.42
[4]; first compound 0.005 µM
  relative viability: 1.08
[4]; first compound 0.01581 µM
  relative viability: 1.06
[4]; first compound 0.05 µM
  relative viability: 0.575
[4]; first compound 0.1581 µM
  relative viability: 0.339
[4]; first compound 0.5 µM
  relative viability: 0.175
